This passage reports IC50 results from US20120309750A1, “5-MEMBERED HETEROCYCLE DERIVATIVES AND MANUFACTURING PROCESS THEREOF” (ILDONG PHARM CO., LTD., priority 2010, published 2012).

Structures are written as SMILES.

The test system of test [1] is human colorectal cancer cells (HCT116). Description: Growth inhibition assay (cytotoxicity) in HCT116. Type of test: cell-based. To be noted: HCT-116. On the procedure: (§1) For present invention, the ATPase activity of yeast HSP90 was measured using malachite green assay. Formula I compounds for primary antitumoral activity were treated in human colorectal cancer cells (HCT116) showing increased expression levels of HSP90 client protein and cotoxicity IC50 values was measured as a result.

A further test addresses yeast HSP90 (Saccharomyces cerevisiae, UniProt P02829). Description: Hsp90 ATPase assay (malachite green). It is filed as biochemical. On the procedure:
as §1

Chain of yeast HSP90 (P02829 whole entry): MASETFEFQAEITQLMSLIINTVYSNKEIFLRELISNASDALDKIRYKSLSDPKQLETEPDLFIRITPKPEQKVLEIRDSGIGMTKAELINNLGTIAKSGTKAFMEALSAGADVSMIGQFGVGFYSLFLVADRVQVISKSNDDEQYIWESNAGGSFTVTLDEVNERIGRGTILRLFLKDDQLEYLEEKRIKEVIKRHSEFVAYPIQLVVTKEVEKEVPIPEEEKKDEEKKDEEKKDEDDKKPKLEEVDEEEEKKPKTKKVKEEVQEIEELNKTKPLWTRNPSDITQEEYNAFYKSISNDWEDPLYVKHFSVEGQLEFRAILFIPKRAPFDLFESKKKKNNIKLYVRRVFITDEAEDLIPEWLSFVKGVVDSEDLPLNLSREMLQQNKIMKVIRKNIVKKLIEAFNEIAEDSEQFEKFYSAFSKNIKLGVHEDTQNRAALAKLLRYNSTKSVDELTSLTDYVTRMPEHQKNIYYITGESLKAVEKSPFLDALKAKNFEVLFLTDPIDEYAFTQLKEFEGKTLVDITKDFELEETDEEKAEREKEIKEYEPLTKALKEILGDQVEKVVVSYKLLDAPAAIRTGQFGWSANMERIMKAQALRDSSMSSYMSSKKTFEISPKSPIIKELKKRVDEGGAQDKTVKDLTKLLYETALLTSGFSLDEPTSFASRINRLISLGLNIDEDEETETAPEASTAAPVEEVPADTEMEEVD

Consider `CCNC(=O)c1noc(-c2cc(C(C)C)c(O)cc2O)c1-c1cc(CO)no1` [Compound I-17, 5-(2,4-Dihydroxy-5-isopropylphenyl)-N-ethyl-3′-(hydroxymethyl)-4,5′-biisoxazole-3-carboxamide], for which the IC50 (in test [1]; against yeast HSP90) was less than 500 nM in each case.
On to `CCNC(=O)c1noc(-c2cc(C(C)C)c(O)cc2O)c1-c1ccn(C(C)C)n1` [Compound I-100, 5-(2,4-Dihydroxy-5-isopropylphenyl)-N-ethyl-4-(1-isopropyl-1H-pyrazol-3-yl)isoxazole-3-carboxamide], for which the IC50 in test [1] is less than 500 nM; against yeast HSP90, 500 to 1000 nM.
On to `CCNC(=O)c1noc(-c2cc(C(C)C)c(O)cc2O)c1-c1cc(C(=O)N2CCSCC2)no1` [Compound I-50, 5-(2,4-Dihydroxy-5-isopropylphenyl)-N-ethyl-3′-(thiomorpholine-4-carbonyl)-4,5′-biisoxazole-3-carboxamide], for which the values for the IC50 (in test [1]; against yeast HSP90) were less than 500 nM and 500 to 1000 nM, respectively.
As for `CCNC(=O)c1noc(-c2cc(C(C)C)c(O)cc2O)c1-c1cc(-c2ccsc2)no1` [Compound I-46, 5-(2,4-Dihydroxy-5-isopropylphenyl)-N-ethyl-3′-(thiophen-3-yl)-4,5′-biisoxazole-3-carboxamide], the half-inhibitory concentration (IC50) was less than 500 nM in test [1] and 500 to 1000 nM against yeast HSP90.
On the same counts, the results for `CCNC(=O)c1noc(-c2cc(C(C)C)c(O)cc2O)c1-c1cc(CC#N)no1` [Compound I-35, 3′-(Cyanomethyl)-5-(2,4-dihydroxy-5-isopropylphenyl)-N-ethyl-4,5′-biisoxazole-3-carboxamide] are less than 500 nM and less than 500 nM.
On the same counts, the results for `CCNC(=O)c1noc(-c2cc(C(C)C)c(O)cc2O)c1C1CC(C(=O)OCC)=NO1` (stereo not drawn) [Compound I-7, Ethyl 5-(5-(2,4-dihydroxy-5-isopropylphenyl)-3-(ethylcarbamoyl)isoxazol-4-yl)-4,5-dihydroisoxazole-3-carboxylate] are 500 to 1000 nM and 500 to 1000 nM.
As for `CCNC(=O)c1noc(-c2cc(C(C)C)c(O)cc2O)c1-c1cn[nH]c1` [Compound I-103, 5-(2,4-Dihydroxy-5-isopropylphenyl)-N-ethyl-4-(1H-pyrazol-4-yl)isoxazole-3-carboxamide], the IC50 (in test [1]; against yeast HSP90) was less than 500 nM throughout.
For `CCNC(=O)c1noc(-c2cc(C(C)C)c(O)cc2O)c1-c1cc(CN(CC)CC)no1` [Compound I-20, 3′-((Diethylamino)methyl)-5-(2,4-dihydroxy-5-isopropylphenyl)-N-ethyl-4,5′-biisoxazole-3-carboxamide], the IC50 (in test [1]; on yeast HSP90) was less than 500 nM in each case.
For `CCNC(=O)c1noc(-c2cc(C(C)C)c(O)cc2O)c1C1CC(CO)=NO1` (stereo not drawn) [Compound I-9, 5-(2,4-Dihydroxy-5-isopropylphenyl)-N-ethyl-4-(3-(hydroxymethyl)-4,5-dihydroisoxazol-5-yl)isoxazole-3-carboxamide], the IC50 is less than 500 nM in test [1] and 500 to 1000 nM at yeast HSP90.
On the same counts, the results for `CCNC(=O)c1noc(-c2cc(C(C)C)c(O)cc2O)c1-c1noc(SC)n1` [Compound I-87, 5-(2,4-Dihydroxy-5-isopropylphenyl)-N-ethyl-4-(5-(methylthio)-1,2,4-oxadiazol-3-yl)isoxazole-3-carboxamide] are 500 to 1000 nM and less than 500 nM.
As for `CCNC(=O)c1noc(-c2cc(C(C)C)c(O)cc2O)c1-c1cc(CN2CCCC2)no1` [Compound I-39, 5-(2,4-Dihydroxy-5-isopropylphenyl)-N-ethyl-3′-(pyrrolidin-1-ylmethyl)-4,5′-biisoxazole-3-carboxamide], the IC50 in test [1] is less than 500 nM; at yeast HSP90, 500 to 1000 nM.
With `CCNC(=O)c1noc(-c2cc(C(C)C)c(O)cc2O)c1-c1noc(C2CCCCC2)n1` [Compound I-89, 4-(5-Cyclohexyl-1,2,4-oxadiazol-3-yl)-5-(2,4-dihydroxy-5-isopropylphenyl)-N-ethylisoxazole-3-carboxamide], the results for the IC50 (in test [1]; against yeast HSP90) were less than 500 nM and 500 to 1000 nM, respectively.
On the same counts, the results for `CCNC(=O)c1noc(-c2cc(C(C)C)c(O)cc2O)c1-c1noc(C(F)(F)F)n1` [Compound I-57, 5-(2,4-Dihydroxy-5-isopropylphenyl)-N-ethyl-4-(5-(trifluoromethyl)-1,2,4-oxadiazol-3-yl)isoxazole-3-carboxamide] are less than 500 nM and 500 to 1000 nM.
On the same counts, the results for `CCNC(=O)c1noc(-c2cc(C(C)C)c(O)cc2O)c1-c1noc(N2CCCCC2)n1` [Compound I-71, 5-(2,4-Dihydroxy-5-isopropylphenyl)-N-ethyl-4-(5-(piperidin-1-yl)-1,2,4-oxadiazol-3-yl)isoxazole-3-carboxamide] are less than 500 nM and less than 500 nM.
On the same counts, the results for `CCNC(=O)c1noc(-c2cc(C(C)C)c(O)cc2O)c1-c1cnn(C(C)C)c1` [Compound I-105, 5-(2,4-Dihydroxy-5-isopropylphenyl)-N-ethyl-4-(1-isopropyl-1H-pyrazol-4-yl)isoxazole-3-carboxamide] are less than 500 nM and 500 to 1000 nM.
Take `C=CCNCc1cc(-c2c(C(=O)NCC)noc2-c2cc(C(C)C)c(O)cc2O)on1` [Compound I-44, 3′-((Allylamino)methyl)-5-(2,4-dihydroxy-5-isopropylphenyl)-N-ethyl-4,5′-biis oxazole-3-carboxamide]: the IC50 (in test [1]; against yeast HSP90) was less than 500 nM in each case.
Regarding `CCNC(=O)c1noc(-c2cc(C(C)C)c(O)cc2O)c1-c1noc(C2CCCC2)n1` [Compound I-88, 4-(5-Cyclopentyl-1,2,4-oxadiazol-3-yl)-5-(2,4-dihydroxy-5-isopropylphenyl)-N-ethylisoxazole-3-carboxamide], the half-maximal inhibitory concentration (IC50) (in test [1]; at yeast HSP90) was less than 500 nM in each case.
As for `CCNC(=O)c1noc(-c2cc(C(C)C)c(O)cc2O)c1-c1cc(CNC)no1` [Compound I-42, 5-(2,4-Dihydroxy-5-isopropylphenyl)-N-ethyl-3′-((methylamino)methyl)-4,5′-biisoxazole-3-carboxamide], the IC50 (in test [1]; on yeast HSP90) was less than 500 nM in each case.
Regarding `CCNC(=O)c1noc(-c2cc(C(C)C)c(O)cc2O)c1-c1cc(C(=O)N2CCOCC2)no1` [Compound I-23, 5-(2,4-Dihydroxy-5-isopropylphenyl)-N-ethyl-3′-(morpholine-4-carbonyl)-4,5′-biisoxazole-3-carboxamide], the IC50 is less than 500 nM in test [1] and 500 to 1000 nM on yeast HSP90.
As to `CCNC(=O)c1noc(-c2cc(C(C)C)c(O)cc2O)c1-c1nnn(CC)n1` [Compound I-14, 5-(2,4-Dihydroxy-5-isopropylphenyl)-N-ethyl-4-(2-ethyl-2H-tetrazol-5-yl)isoxazole-3-carboxamide], the IC50 (in test [1]; against yeast HSP90) was less than 500 nM each time.
For the molecule `CC(C)c1cc(-c2onc(CO)c2-c2ccsc2)c(O)cc1O` [Compound I-3, 4-(3-(Hydroxymethyl)-4-(thiophen-3-yl)isoxazol-5-yl)-6-isopropylbenzene-1,3-diol], the IC50 (in test [1]; on yeast HSP90) was more than 1000 nM in each case.
As to `CCNC(=O)c1noc(-c2cc(C(C)C)c(O)cc2O)c1-c1noc(C(Cl)(Cl)Cl)n1` [Compound I-70, 5-(2,4-Dihydroxy-5-isopropylphenyl)-N-ethyl-4-(5-(trichloromethyl)-1,2,4-oxadiazol-3-yl)isoxazole-3-carboxamide], the IC50 (in test [1]; against yeast HSP90) was 500 to 1000 nM throughout.
On to `CCNC(=O)c1noc(-c2cc(C(C)C)c(O)cc2O)c1-c1noc(-c2ccc([N+](=O)[O-])cc2)n1` [Compound I-85, 5-(2,4-Dihydroxy-5-isopropylphenyl)-N-ethyl-4-(5-(4-nitrophenyl)-1,2,4-oxadiazol-3-yl)isoxazole-3-carboxamide], for which the IC50 (in test [1]; on yeast HSP90) was less than 500 nM each time.
Take `CCCn1ccc(-c2c(C(=O)NCC)noc2-c2cc(C(C)C)c(O)cc2O)n1` [Compound I-101, 5-(2,4-Dihydroxy-5-isopropylphenyl)-N-ethyl-4-(1-propyl-1H-pyrazol-3-yl)isoxazole-3-carboxamide]: the IC50 is less than 500 nM in test [1] and 500 to 1000 nM at yeast HSP90.
On the same counts, the results for `CCNC(=O)c1noc(-c2cc(C(C)C)c(O)cc2O)c1-c1cc(CF)no1` [Compound I-28, 5-(2,4-Dihydroxy-5-isopropylphenyl)-N-ethyl-3′-(fluoromethyl)-4,5′-biisoxazole-3-carboxamide] are less than 500 nM and less than 500 nM.
Turning to `CCNC(=O)c1noc(-c2cc(C(C)C)c(O)cc2O)c1-c1ccsc1CN1CCOCC1` [Compound I-2, 5-(2,4-Dihydroxy-5-isopropylphenyl)-N-ethyl-4-(2-(morpholinomethyl)thiophen-3-yl)isoxazole-3-carboxamide], the figures for the IC50 (in test [1]; on yeast HSP90) were less than 500 nM and more than 1000 nM, respectively.
On the same counts, the results for `CCNC(=O)c1noc(-c2cc(C(C)C)c(O)cc2O)c1-c1cc[nH]n1` [Compound I-96, 5-(2,4-Dihydroxy-5-isopropylphenyl)-N-ethyl-4-(1H-pyrazol-3-yl)isoxazole-3-carboxamide] are less than 500 nM and 500 to 1000 nM.
Consider `CCNC(=O)c1noc(-c2cc(C(C)C)c(O)cc2O)c1-c1noc(OC)n1` [Compound I-86, 5-(2,4-Dihydroxy-5-isopropylphenyl)-N-ethyl-4-(5-methoxy-1,2,4-oxadiazol-3-yl)isoxazole-3-carboxamide], for which the values for the IC50 (in test [1]; against yeast HSP90) were less than 500 nM and 500 to 1000 nM, respectively.
On the same counts, the results for `CCNC(=O)c1noc(-c2cc(C(C)C)c(O)cc2O)c1-c1noc(C(O)CCl)n1` (stereo not drawn) [Compound I-91, 4-(5-(2-Chloro-1-hydroxyethyl)-1,2,4-oxadiazol-3-yl)-5-(2,4-dihydroxy-5-isopropylphenyl)-N-ethylisoxazole-3-carboxamide] are less than 500 nM and 500 to 1000 nM.
On the same counts, the results for `CCNC(=O)c1noc(-c2cc(C(C)C)c(O)cc2O)c1-c1noc(NC)n1` [Compound I-79, 5-(2,4-Dihydroxy-5-isopropylphenyl)-N-ethyl-4-(5-(methylamino)-1,2,4-oxadiazol-3-yl)isoxazole-3-carboxamide] are less than 500 nM and 500 to 1000 nM.

As a reminder, the IC50 is the midpoint of a concentration-inhibition curve. Read a high IC50 as weaker potency.
